# Article PMC10006169, “A phase I trial of LXS196, a protein kinase C (PKC) inhibitor, for metastatic uveal melanoma” (British Journal of Cancer, 2023)
# Several values for one entry are separate records, joined by “and”; a condition that tells them apart may be missing. Equal entries are not always repeated.
# System: patients with MUM
# Assay: Adverse events regardless of study drug relationship
# Format: in vivo, human
# Experimental: Routine safety assessments, including laboratory assessments, physical examinations, vital signs and electrocardiograms (ECGs), were conducted at regular intervals throughout the study and more frequently as needed following patient assessment by the treating physician. Adverse events (AEs) were assessed continuously according to the National Cancer Institute Common Terminology Criteria for Adverse Events (NCI-CTCAE) v4.03.
smiles,measurement,setting,value
CC1(N)CCN(c2cccnc2NC(=O)c2nc(-c3ncccc3C(F)(F)F)cnc2N)CC1 [LXS196],"ALT increased, all grades",All BID,9 (30.0) n (%)
same,"ALT increased, grade ≥3",All BID,2 (6.7) n (%)
same,"AST increased, all grades",All BID,8 (26.7) n (%)
same,"AST increased, grade ≥3",All BID,3 (10.0) n (%)
same,"Abdominal pain upper, all grades",All BID,3 (10.0) n (%)
same,"Abdominal pain upper, grade ≥3",All BID,0 n (%)
same,"Asthenia, all grades",All BID,7 (23.3) n (%)
same,"Asthenia, grade ≥3",All BID,0 n (%)
same,"Blood creatinine increased, all grades",All BID,5 (16.7) n (%)
same,"Blood creatinine increased, grade ≥3",All BID,0 n (%)
same,"Constipation, all grades",All BID,7 (23.3) n (%)
same,"Constipation, grade ≥3",All BID,0 n (%)
same,"Decreased appetite, all grades",All BID,5 (16.7) n (%)
same,"Decreased appetite, grade ≥3",All BID,0 n (%)
same,"Dermatitis acneiform, all grades",All BID,5 (16.7) n (%)
same,"Dermatitis acneiform, grade ≥3",All BID,0 n (%)
same,"Diarrhoea, all grades",All BID,17 (56.7) n (%)
same,"Diarrhoea, grade ≥3",All BID,1 (3.3) n (%)
same,"Dry skin, all grades",All BID,6 (20.0) n (%)
same,"Dry skin, grade ≥3",All BID,0 n (%)
same,"Fatigue, all grades",All BID,7 (23.3) n (%)
same,"Fatigue, grade ≥3",All BID,0 n (%)
same,"Hypotension, all grades",All BID,7 (23.3) n (%)
same,"Hypotension, grade ≥3",All BID,1 (3.3) n (%)
same,"Nasopharyngitis, all grades",All BID,3 (10.0) n (%)
same,"Nasopharyngitis, grade ≥3",All BID,0 n (%)
same,"Nausea, all grades",All BID,21 (70.0) n (%)
same,"Nausea, grade ≥3",All BID,0 n (%)
same,"Neutropenia, all grades",All BID,2 (6.7) n (%)
same,"Neutropenia, grade ≥3",All BID,0 n (%)
same,"Oedema peripheral, all grades",All BID,8 (26.7) n (%)
same,"Oedema peripheral, grade ≥3",All BID,1 (3.3) n (%)
same,"Patients with ≥1 AE, all grades",All BID,30 (100) n (%)
same,"Patients with ≥1 AE, grade ≥3",All BID,15 (50.0) n (%)
same,"Rash, all grades",All BID,6 (20.0) n (%)
same,"Rash, grade ≥3",All BID,0 n (%)
same,"Vomiting, all grades",All BID,11 (36.7) n (%)
same,"Vomiting, grade ≥3",All BID,0 n (%)
same,"ALT increased, all grades",All QD,9 (23.7) n (%)
same,"ALT increased, grade ≥3",All QD,2 (5.3) n (%)
same,"AST increased, all grades",All QD,5 (13.2) n (%)
same,"AST increased, grade ≥3",All QD,2 (5.3) n (%)
same,"Abdominal pain upper, all grades",All QD,4 (10.5) n (%)
same,"Abdominal pain upper, grade ≥3",All QD,0 n (%)
same,"Asthenia, all grades",All QD,8 (21.1) n (%)
same,"Asthenia, grade ≥3",All QD,0 n (%)
same,"Blood creatinine increased, all grades",All QD,3 (7.9) n (%)
same,"Blood creatinine increased, grade ≥3",All QD,0 n (%)
same,"Constipation, all grades",All QD,10 (26.3) n (%)
same,"Constipation, grade ≥3",All QD,0 n (%)
same,"Decreased appetite, all grades",All QD,5 (13.2) n (%)
same,"Decreased appetite, grade ≥3",All QD,0 n (%)
same,"Dermatitis acneiform, all grades",All QD,2 (5.3) n (%)
same,"Dermatitis acneiform, grade ≥3",All QD,0 n (%)
same,"Diarrhoea, all grades",All QD,20 (52.6) n (%)
same,"Diarrhoea, grade ≥3",All QD,0 n (%)
same,"Dry skin, all grades",All QD,3 (7.9) n (%)
same,"Dry skin, grade ≥3",All QD,0 n (%)
same,"Fatigue, all grades",All QD,12 (31.6) n (%)
same,"Fatigue, grade ≥3",All QD,0 n (%)
same,"Hypotension, all grades",All QD,8 (21.1) n (%)
same,"Hypotension, grade ≥3",All QD,5 (13.2) n (%)
same,"Nasopharyngitis, all grades",All QD,4 (10.5) n (%)
same,"Nasopharyngitis, grade ≥3",All QD,0 n (%)
same,"Nausea, all grades",All QD,27 (71.1) n (%)
same,"Nausea, grade ≥3",All QD,1 (2.6) n (%)
same,"Neutropenia, all grades",All QD,5 (13.2) n (%)
same,"Neutropenia, grade ≥3",All QD,2 (5.3) n (%)
same,"Oedema peripheral, all grades",All QD,5 (13.2) n (%)
same,"Oedema peripheral, grade ≥3",All QD,0 n (%)
same,"Patients with ≥1 AE, all grades",All QD,36 (94.7) n (%)
same,"Patients with ≥1 AE, grade ≥3",All QD,14 (36.8) n (%)
same,"Rash, all grades",All QD,4 (10.5) n (%)
same,"Rash, grade ≥3",All QD,0 n (%)
same,"Vomiting, all grades",All QD,15 (39.5) n (%)
same,"Vomiting, grade ≥3",All QD,1 (2.6) n (%)
same,"ALT increased, all grades",All patients,18 (26.5) n (%)
same,"ALT increased, grade ≥3",All patients,4 (5.9) n (%)
same,"AST increased, all grades",All patients,13 (19.1) n (%)
same,"AST increased, grade ≥3",All patients,5 (7.4) n (%)
same,"Abdominal pain upper, all grades",All patients,7 (10.3) n (%)
same,"Abdominal pain upper, grade ≥3",All patients,0 n (%)
same,"Asthenia, all grades",All patients,15 (22.1) n (%)
same,"Asthenia, grade ≥3",All patients,0 n (%)
same,"Blood creatinine increased, all grades",All patients,8 (11.8) n (%)
same,"Blood creatinine increased, grade ≥3",All patients,0 n (%)
same,"Constipation, all grades",All patients,17 (25.0) n (%)
same,"Constipation, grade ≥3",All patients,0 n (%)
same,"Decreased appetite, all grades",All patients,10 (14.7) n (%)
same,"Decreased appetite, grade ≥3",All patients,0 n (%)
same,"Dermatitis acneiform, all grades",All patients,7 (10.3) n (%)
same,"Dermatitis acneiform, grade ≥3",All patients,0 n (%)
same,"Diarrhoea, all grades",All patients,37 (54.4) n (%)
same,"Diarrhoea, grade ≥3",All patients,1 (1.5) n (%)
same,"Dry skin, all grades",All patients,9 (13.2) n (%)
same,"Dry skin, grade ≥3",All patients,0 n (%)
same,"Fatigue, all grades",All patients,19 (27.9) n (%)
same,"Fatigue, grade ≥3",All patients,0 n (%)
same,"Hypotension, all grades",All patients,15 (22.1) n (%)
same,"Hypotension, grade ≥3",All patients,6 (8.8) n (%)
same,"Nasopharyngitis, all grades",All patients,7 (10.3) n (%)
same,"Nasopharyngitis, grade ≥3",All patients,0 n (%)
same,"Nausea, all grades",All patients,48 (70.6) n (%)
same,"Nausea, grade ≥3",All patients,1 (1.5) n (%)
same,"Neutropenia, all grades",All patients,7 (10.3) n (%)
same,"Neutropenia, grade ≥3",All patients,2 (2.9) n (%)
same,"Oedema peripheral, all grades",All patients,13 (19.1) n (%)
same,"Oedema peripheral, grade ≥3",All patients,1 (1.5) n (%)
same,"Patients with ≥1 AE, all grades",All patients,66 (97.1) n (%)
same,"Patients with ≥1 AE, grade ≥3",All patients,29 (42.6%) n (%) and 29 (42.6) n (%)
same,"Rash, all grades",All patients,10 (14.7) n (%)
same,"Rash, grade ≥3",All patients,0 n (%)
same,"Vomiting, all grades",All patients,26 (38.2) n (%)
same,"Vomiting, grade ≥3",All patients,1 (1.5) n (%)
same,AE leading to discontinuation of LXS196,"SAE grade 3/4, one patient, BID schedule",hepatic failure
